Structures are written as SMILES. Some results are limits rather than exact numbers.

The target in the assay is T1, human GPR17 receptor (Homo sapiens, UniProt Q13304).
T1 construct: host or cells: HEK-293
T1 sequence (Q13304 whole entry): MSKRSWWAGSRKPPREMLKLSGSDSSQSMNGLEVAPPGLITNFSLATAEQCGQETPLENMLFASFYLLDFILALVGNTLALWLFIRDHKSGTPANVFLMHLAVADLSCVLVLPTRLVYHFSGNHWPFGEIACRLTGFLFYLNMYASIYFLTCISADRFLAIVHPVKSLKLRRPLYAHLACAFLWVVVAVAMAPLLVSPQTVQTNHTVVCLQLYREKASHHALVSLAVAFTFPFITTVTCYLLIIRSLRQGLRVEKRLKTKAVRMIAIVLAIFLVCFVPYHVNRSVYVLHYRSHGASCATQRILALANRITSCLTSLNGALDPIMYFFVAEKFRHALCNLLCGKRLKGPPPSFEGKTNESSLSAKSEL
The experiment in a line: Calcium mobilization functional assay (Fluo-8, FLIPR TETRA) in HEK-293 hGPR17 (Gα-q assay). The class given is cell-based. To be noted: antagonism of MDL29,951 (~EC80) induced Ca2+ signal; cell line (HEK-293 hGPR17 or HEK-293 Suchi5 hGPR17) not given. The method, then:
HEK-293 cells stably expressing the human GPR17 receptor (HEK-293 hGPR17) developed by Axxam (Bresso, Milan, Italy) were cultured at 37° C. in a humidified atmosphere of 5% CO2. Cells were grown in EMEM supplemented with FBS (10%), Penicillin/Streptomycin (1%), Ultraglutamine I (2 mM), puromycin (0.6 μg/mL), G418 (0.4 mg/mL), zeocin (50 μg/mL). This cell line was used to test the compound antagonistic activity by monitoring the Gα-q based signaling. Signaling via Gα-q leads to mobilization of calcium from internal stores. Elevated intracellular calcium levels can then be measured with calcium-sensitive fluorescent dyes (e.g., Fluo 8-No Wash Dye).
GPR17 activation leads to both an increase in intracellular calcium (via Gα-q) and a decrease in cAMP levels (via Gα-i), implicating that both of these pathways play a role for in vivo function.
Experiments were performed using the below cell lines, as described in part 1: • HEK-293 hGPR17 (used to study the compounds acting via Gα-q pathway) • HEK-293 Suchi5 hGPR17 (used to study the compounds acting via Gα-i pathway, where the Gα-i signaling is switched to a Gα-q signaling thanks to the Gα-i/q chimera Suchi5)
GPR17 activation was able to induce an endoplasmic reticulum calcium (Ca^2+) store release in cytosol which could be measured using the fluorescent Ca^2+ sensitive dye Fluo-8 No Wash Dye as readout.
HEK-293 hGPR17 and HEK-293 Suchi5 hGPR17 were seeded at a density of 15,000 cells/well into poly-D-lysine coated black 384-well plates with clear bottom in complete medium. Cells were incubated overnight at 37° C. in a humidified atmosphere of 5% CO2. Twenty-four hours after seeding, the culture medium was carefully removed manually and the cells were loaded for 60 minutes at room temperature with the Ca^2+ sensitive Fluo-8 No Wash Dye, according to manufacturer's instructions. Cells were then assayed using a fluorometric imaging plate reader (FLIPR^TETRA). Fluorescence (excitation: 470-495 nm; emission: 515-575 nm) was recorded during the experiment. […] After twenty minutes, a second injection of MDL29,951 at ˜EC80 (500 nM for HEK-293 hGPR17 and 2 nM for HEK-293 Suchi5 hGPR17) in assay buffer was performed at the FLIPR^TETRA and the signal of the emitted fluorescence was recorded for additional 2 minutes. All the compound injections and incubations were performed in duplicate. For data quality and data analysis the Screener® 16.0.6 (Genedata) software was used.
Regarding `O=S(=O)(Nc1ncc(Cl)cc1F)c1c[nH]c(-c2ccccc2)c1` [Cpd 068, N-(5-chloro-3-fluoro-2-pyridyl)-5-phenyl-1H-pyrrole-3-sulfonamide], the IC50 is less than 500 nM. The same measure for `O=S(=O)(Nc1cccc2c1OCO2)c1c[nH]c(-c2ccccc2)c1` [Cpd 069, N-(1,3-benzodioxol-4-yl)-5-phenyl-1H-pyrrole-3-sulfonamide]: 500 to 5000 nM; for `Cc1cc(F)c(NS(=O)(=O)c2c[nH]c(-c3ccccc3)c2)cc1F` [Cpd 070, N-(2,5-difluoro-4-methyl-phenyl)-5-phenyl-1H-pyrrole-3-sulfonamide]: less than 500 nM; for `O=S(=O)(Nc1cc(F)c(C(F)(F)F)cc1F)c1c[nH]c(-c2ccccc2)c1` [Cpd 071, N-[2,5-difluoro-4-(trifluoromethyl)phenyl]-5-phenyl-1H-pyrrole-3-sulfonamide]: less than 500 nM.

As to `N#Cc1ccc(NS(=O)(=O)c2c[nH]c(-c3ccccc3F)c2)cc1F` [Cpd 072, N-(4-cyano-3-fluoro-phenyl)-5-(2-fluorophenyl)-1H-pyrrole-3-sulfonamide], the IC50 was less than 500 nM. Consider `O=S(=O)(Nc1cc(F)c(C(F)(F)F)cc1F)c1c[nH]c(-c2ccccc2F)c1` [Cpd 073, N-[2,5-difluoro-4-(trifluoromethyl)phenyl]-5-(2-fluorophenyl)-1H-pyrrole-3-sulfonamide], for which the IC50 was less than 500 nM. For `N#Cc1cc(F)c(NS(=O)(=O)c2c[nH]c(-c3ccccc3F)c2)cc1F` [Cpd 074, N-(4-cyano-2,5-difluoro-phenyl)-5-(2-fluorophenyl)-1H-pyrrole-3-sulfonamide], the IC50 is less than 500 nM.

With `Cc1cc(F)c(NS(=O)(=O)c2c[nH]c(-c3ccccc3F)c2)cc1F` [Cpd 075, N-(2,5-difluoro-4-methyl-phenyl)-5-(2-fluorophenyl)-1H-pyrrole-3-sulfonamide], the IC50 is less than 500 nM. Regarding `N#Cc1cc(F)c(NS(=O)(=O)c2c[nH]c(-c3ccccc3)c2F)cc1F` [Cpd 076, N-(4-cyano-2,5-difluoro-phenyl)-4-fluoro-5-phenyl-1H-pyrrole-3-sulfonamide], the IC50 is less than 500 nM. Turning to `N#Cc1cc(F)c(NS(=O)(=O)c2cc(-c3ccccc3)[nH]c2F)cc1F` [Cpd 077, N-(4-cyano-2,5-difluoro-phenyl)-2-fluoro-5-phenyl-1H-pyrrole-3-sulfonamide], the IC50 was in the range of 500 to 5000 nM. `Cn1nccc1-c1cc(S(=O)(=O)Nc2ccc(C#N)cc2F)c[nH]1` [Cpd 078, N-(4-cyano-2-fluoro-phenyl)-5-(2-methylpyrazol-3-yl)-1H-pyrrole-3-sulfonamide]: the half-maximal inhibitory concentration (IC50) was 5000 to 50000 nM. The same measure for `N#Cc1ccc(NS(=O)(=O)c2c[nH]c(-c3ccccc3C(F)(F)F)c2)c(F)c1` [Cpd 079, N-(4-cyano-2-fluoro-phenyl)-5-[2-(trifluoromethyl)phenyl]-1H-pyrrole-3-sulfonamide]: 500 to 5000 nM; for `COCc1ccccc1-c1cc(S(=O)(=O)Nc2ccc(C#N)cc2F)c[nH]1` [Cpd 080, N-(4-cyano-2-fluoro-phenyl)-5-[2-(methoxymethyl)phenyl]-1H-pyrrole-3-sulfonamide]: 500 to 5000 nM; for `Cn1ccc(-c2cc(S(=O)(=O)Nc3ccc(C#N)cc3F)c[nH]2)n1` [Cpd 081, N-(4-cyano-2-fluoro-phenyl)-5-(1-methylpyrazol-3-yl)-1H-pyrrole-3-sulfonamide]: 500 to 5000 nM. Turning to `Cc1cccc(F)c1-c1cc(S(=O)(=O)Nc2ccc(C#N)cc2F)c[nH]1` [Cpd 082, N-(4-cyano-2-fluoro-phenyl)-5-(2-fluoro-6-methyl-phenyl)-1H-pyrrole-3-sulfonamide], the concentration for half-maximal inhibition (IC50) is less than 500 nM. The result for `COc1cccc(F)c1-c1cc(S(=O)(=O)Nc2ccc(C#N)cc2F)c[nH]1` [Cpd 083, N-(4-cyano-2-fluoro-phenyl)-5-(2-fluoro-6-methoxy-phenyl)-1H-pyrrole-3-sulfonamide] reads less than 500 nM. As for `COc1ccc(F)c(-c2cc(S(=O)(=O)Nc3ccc(C#N)cc3F)c[nH]2)c1` [Cpd 084, N-(4-cyano-2-fluoro-phenyl)-5-(2-fluoro-5-methoxy-phenyl)-1H-pyrrole-3-sulfonamide], the half-maximal inhibitory concentration (IC50) is less than 500 nM.

A word on the IC50: it is the concentration that gives 50% inhibition.

Values taken from patent US20240299385A1 (ReWind Therapeutics NV, priority 2021, published 2024).
